Experimental data as given in PMC8812735, “Discovery of triterpenoids as potent dual inhibitors of pancreatic lipase and human carboxylesterase 1” (Journal of Enzyme Inhibition and Medicinal Chemistry, 2022).
Where two headings read alike, the source gives them in different places.

Tests used:
Type in all cases: biochemical
Pancreatic lipase (PL) = molecular target: T1, Pancreatic lipase (PL) (Sus scrofa, UniProt P00591); assay: Inhibition of PL-mediated 4-MUO hydrolysis; conditions: 4-MUO substrate, mean ± SD (n = 3)
T1 construct: purchased Sigma Aldrich type II, Lot.SLBN9099V
T1 sequence (P00591 1-450): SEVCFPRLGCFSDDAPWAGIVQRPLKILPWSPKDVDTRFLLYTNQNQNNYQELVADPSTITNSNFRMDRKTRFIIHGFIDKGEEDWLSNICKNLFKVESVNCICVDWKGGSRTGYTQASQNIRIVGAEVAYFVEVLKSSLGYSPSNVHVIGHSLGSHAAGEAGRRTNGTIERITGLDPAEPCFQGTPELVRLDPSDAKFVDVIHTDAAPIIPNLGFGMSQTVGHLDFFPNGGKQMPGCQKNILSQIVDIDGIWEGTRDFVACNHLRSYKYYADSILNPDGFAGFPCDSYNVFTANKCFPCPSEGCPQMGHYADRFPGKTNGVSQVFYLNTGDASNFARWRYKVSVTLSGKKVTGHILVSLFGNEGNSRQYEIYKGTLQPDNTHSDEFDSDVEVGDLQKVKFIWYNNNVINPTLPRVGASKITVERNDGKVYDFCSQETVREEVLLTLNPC
Protocol: In addition, the background fluorescence in the absence of an enzyme source (PL) (add the same amount of citrate-Na2HPO4 buffer) was measured. […] Then start the reaction by adding 2 µL of 4-MUO probe (3 µM, final concentration). The fluorescence signal of 4-MU (hydrolytic metabolite) was detected by multi-mode microplate reader (SpectraMax M4, Molecular Devices, Urstein, Austria) with continuous oscillation for 20 min and recorded and analysed at 60 s intervals. The excitation wavelength and emission wavelength of 4-MU were set at 340 nm and 460 nm, respectively, and the gain value was 500.
(§1) Subsequently, various concentrations of substrates (selected according to Km) and different concentrations of inhibitors were used to determine the corresponding reaction rate, and the second slope graph of the Lineweaver–Burk diagram was used as a function of the inhibitor to calculate the corresponding inhibition constant (Ki) value. All kinetic data were fitted by the following kinetic equations (a–c), for competitive (a), non-competitive (b) and mixed inhibition (c): (a) V=(VmaxS)/[Km(1+I/Ki)+S] (b) V=(VmaxS)/[(Km+S)×(1+I/Ki)] (c) V=(VmaxS)/[(Km+S)×(1+I/αKi)] where V is the hydrolytic velocity of the reaction, Vmax is the maximum velocity. S and I are substrate (4-MUO, NLMe) and inhibitor (compound 39/41) concentrations, respectively. Ki is the inhibition constant of the tested inhibitor against the target PL and hCES1A; Km is the Michaelis constant (the substrate concentration at half of the Vmax).
All measurements were made in triplicate and the data obtained in the experiment were shown as mean ± SD.

hCES2A = molecular target: T2, hCES2A (Homo sapiens, UniProt O00748); assay: Inhibition of hCES2A-mediated FD hydrolysis
T2 sequence (O00748 27-559): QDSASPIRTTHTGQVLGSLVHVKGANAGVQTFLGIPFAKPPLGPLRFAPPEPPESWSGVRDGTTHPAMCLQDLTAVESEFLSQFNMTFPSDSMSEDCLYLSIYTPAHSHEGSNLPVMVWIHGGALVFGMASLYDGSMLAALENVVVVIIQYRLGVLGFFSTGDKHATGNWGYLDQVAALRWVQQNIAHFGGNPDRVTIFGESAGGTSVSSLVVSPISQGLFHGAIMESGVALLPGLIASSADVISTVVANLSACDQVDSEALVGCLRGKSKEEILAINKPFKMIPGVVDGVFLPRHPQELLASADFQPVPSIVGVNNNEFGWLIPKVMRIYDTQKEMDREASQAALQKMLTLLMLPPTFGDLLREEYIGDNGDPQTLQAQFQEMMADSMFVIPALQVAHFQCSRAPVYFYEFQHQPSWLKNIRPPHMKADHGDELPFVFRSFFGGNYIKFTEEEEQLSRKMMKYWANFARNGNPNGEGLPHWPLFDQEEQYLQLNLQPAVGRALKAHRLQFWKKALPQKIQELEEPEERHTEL
Text: […] (FD) was used as the hCES2A specific probe substrate to assay the inhibitory effect of natural triterpenoids on hCES2A. The entire detailed operation process refers to the previously reported method, and finally the FD mixture was put into the multi-mode microplate reader for analysis and detection.

hCES1A = molecular target: T3, hCES1A (Homo sapiens, UniProt P23141); assay: Inhibition of hCES1A-mediated NLMe hydrolysis in human liver microsomes
T3 construct: tissue Bioreclamation IVT lot No. X008067; host or cells: pooled human liver microsomes from 50 donors
T3 sequence (P23141 18-567): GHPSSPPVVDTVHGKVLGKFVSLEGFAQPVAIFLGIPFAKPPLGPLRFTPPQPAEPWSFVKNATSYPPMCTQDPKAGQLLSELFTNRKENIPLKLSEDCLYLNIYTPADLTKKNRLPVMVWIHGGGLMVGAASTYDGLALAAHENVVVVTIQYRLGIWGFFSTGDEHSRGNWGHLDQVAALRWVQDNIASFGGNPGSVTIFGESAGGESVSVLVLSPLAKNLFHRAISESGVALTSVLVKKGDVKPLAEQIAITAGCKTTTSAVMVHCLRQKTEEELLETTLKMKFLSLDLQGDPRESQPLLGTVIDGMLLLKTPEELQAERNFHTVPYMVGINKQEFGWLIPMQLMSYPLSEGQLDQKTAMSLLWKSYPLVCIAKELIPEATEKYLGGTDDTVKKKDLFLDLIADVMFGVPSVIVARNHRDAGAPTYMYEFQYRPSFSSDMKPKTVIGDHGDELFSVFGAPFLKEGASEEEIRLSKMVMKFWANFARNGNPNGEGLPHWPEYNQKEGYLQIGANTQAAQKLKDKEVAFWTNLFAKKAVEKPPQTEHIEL
Protocol: N-Alkylated D-luciferin methyl ester (NLMe), a Specific probe for hCES1A[45], was used for assessing the inhibitory effects for triterpenoids, and BNPP was used as a positive inhibitor of hCES1A. […] Then NLMe (2 µL, 0.15 mM) was added to start the reaction. After shaking the reaction in 37 °C incubator for 10 min, 50 µL of reaction solution was removed and mixed with LDR (50 µL) to terminate the reaction. A multi-mode microplate reader was used to detect the luminescence signal of NL (the hydrolysed metabolite of NLMe). The luminescence product of NL was measured at 580 nm (gain: 140). The final volume ratio of DMSO was less than 1% (V/V).
as §1
All measurements were made in triplicate and the data obtained in the experiment were shown as mean ± SD. The IC50 and Ki values of the compounds with strong inhibitory effect were evaluated by nonlinear regression with graphpad prism 7.0 software (GraphPad Software, Inc., La Jolla, CA).

[1] = NLMe substrate, HLM, mean ± SD (n = 3), read-out: IC50 (µM) hCES1A

| Compound | IC50 (Pancreatic lipase (PL)) [µM] | IC50 (hCES2A; FD substrate, mean ± SD (n = 3), read-out: IC50 (µM) hCES2A) [µM] | IC50 (hCES1A; [1]) [µM] | IC50 (hCES2A) [µM] | IC50 (hCES1A) [µM] |
| --- | --- | --- | --- | --- | --- |
| CC1(C)CC[C@]2(C(=O)O)CC[C@]3(C)C(=CC[C@@H]4[C@@]5(C)CC[C@H](O)[C@@](C)(CO)[C@@H]5CC[C@]43C)[C@@H]2C1 [Compound 3, hederagenin] | 13 ± 2.03 | 9.22 ± 1.43 | 0.04 ± 0.004 | – | – |
| C[C@H]1[C@H](C)CC[C@]2(C(=O)O)CC[C@]3(C)C(=CC[C@@H]4[C@@]5(C)C[C@@H](O)[C@H](O)[C@@](C)(CO)[C@@H]5CC[C@]43C)[C@H]12 [Compound 7, asiatic acid] | 12.9 ± 1.87 | – | – | 65.1 ± 6.41 | 0.17 ± 0.02 |
| C=C(C)[C@@H]1CC[C@]2(CO)CC[C@]3(C)[C@H](CC[C@@H]4[C@@]5(C)CC[C@H](O)C(C)(C)[C@@H]5CC[C@]43C)[C@@H]12 [Compound 12, betulin] | 7.47 ± 1.68 | – | – | – | > 100 |
| O=[N+]([O-])c1ccc(OP(=O)(O)Oc2ccc([N+](=O)[O-])cc2)cc1 [Compound 29, Bis-p-nitrophenyl phosphate, reference compound] | > 100 | – | 0.36 ± 0.03 | – | – |
| CC1(C)CCC2(C(=O)O)CCC3(C)C(=CCC4C5(C)CCC(=O)C(C)(C)C5CCC43C)C2C1 (stereo not shown) [Compound 30] | 7.51 ± 1.08 | – | 0.047 ± 0.003 | – | – |
| CC(=O)OC1CCC2(C)C(CCC3(C)C2CC=C2C4CC(C)(C)CCC4(C(=O)O)CCC23C)C1(C)C (stereo not shown) [Compound 31] | 3.67 ± 0.72 | – | – | – | 0.051 ± 0.005 |
| CC(=O)OC1CCC2(C)C(CCC3(C)C2CC=C2C4CC(C)(C)CCC4(C(N)=O)CCC23C)C1(C)C (stereo not shown) [Compound 32] | 7.02 ± 0.59 | – | 0.11 ± 0.013 | – | – |
| CC1(C)CCC2(C(=O)O)CCC3(C)C(=CCC4C5(C)CCC(OC(=O)CCC(=O)O)C(C)(C)C5CCC43C)C2C1 (stereo not shown) [Compound 33] | 36.4 ± 5.17 | – | 0.043 ± 0.003 | – | – |
| CCCC(=O)OC1CCC2(C)C(CCC3(C)C2CC=C2C4CC(C)(C)CCC4(C(=O)O)CCC23C)C1(C)C (stereo not shown) [Compound 34] | > 100 | – | 0.24 ± 0.049 | – | – |
| CCCCCC(=O)OC1CCC2(C)C(CCC3(C)C2CC=C2C4CC(C)(C)CCC4(C(=O)O)CCC23C)C1(C)C (stereo not shown) [Compound 35] | > 100 | – | 1.82 ± 0.29 | – | – |
| COC(=O)C12CCC(C)(C)CC1C1=CCC3C4(C)CCC(O)C(C)(C)C4CCC3(C)C1(C)CC2 (stereo not shown) [Compound 36] | 30.6 ± 3.58 | – | 0.856 ± 0.15 | – | – |
| CC1(C)CCC2(CO)CCC3(C)C(=CCC4C5(C)CCC(O)C(C)(C)C5CCC43C)C2C1 (stereo not shown) [Compound 37] | 11.8 ± 1.6 | – | 4.11 ± 0.77 | – | – |
| CC1(C)CCC2(C(N)=O)CCC3(C)C(=CCC4C5(C)CCC(O)C(C)(C)C5CCC43C)C2C1 (stereo not shown) [Compound 38] | 7.83 ± 1.21 | – | 0.48 ± 0.06 | – | – |
| CC1CCC2(C(=O)O)CCC3(C)C(=CCC4C5(C)CCC(=O)C(C)(C)C5CCC43C)C2C1C (stereo not shown) [Compound 40] | 6.94 ± 1.37 | – | 0.93 ± 0.18 | – | – |
| CC1CCC2(C(=O)O)CCC3(C)C(=CCC4C5(C)CCC(OC(=O)CCC(=O)O)C(C)(C)C5CCC43C)C2C1C (stereo not shown) [Compound 42] | 20.9 ± 1.78 | – | – | – | 0.028 ± 0.003 |
| CC1CCC2(C(=O)O)CCC3(C)C(=CCC4C5(C)C=C(O)C(=O)C(C)(C)C5CCC43C)C2C1C (stereo not shown) [Compound 43] | 5.21 ± 1.24 | – | 0.032 ± 0.003 | – | – |
